From patent US12377069B2, “Compounds, compositions, methods of using, and methods for preparing compounds” (UNIVERSITY OF LOUISVILLE RESEARCH FOUNDATION, INC., priority 2018, dated 2025)

Experiments:
[1] = test system: colon cancer cell line (SW480); test: Proliferation assay with 5FU; details: Homo sapiens
Cyp1A1 [2] = test: Cyp1A1 enzyme activity in colon and liver microsomes of treated mice; type: in vivo, mouse; details: 1 week; for Cyp1A1 activity in liver compared to oral UroA/UAS03: i.p. daily
Procedure: Measurements of Cyp1A1 enzyme activity (Ex vivo): Mice were treated with Vehicle or UroA or UAS03, BNF or FICZ daily for one week at indicated concentration either through oral or i.p. route. After one week, mice were euthanized and the colon and liver tissues were dissected. Microsomes from these tissues were prepared using the following procedure (SINGH et al., (2013) “Evaluation of memory enhancing clinically available standardized extract of Bacopa monniera on P-glycoprotein and cytochrome P450 3A in Sprague-Dawley rats” PloS one, Vol. 8, Article e72517). For hepatic microsomes, liver was first perfused with 0.9% sodium chloride solution and excised out. Adhering blood and saline was removed by blotting on tissue paper and tissue was homogenized in tissue homogenization buffer (50 mM Tris-HCl, pH 7.4 with 250 mM sucrose). Homogenate was centrifuged at 10,000×g for 30 minutes at 4° C. supernatant obtained was further centrifuged at 105,000×g for 60 minutes at 4° C. The pellet was washed with homogenization buffer and centrifuged again at 105,000×g for 60 minutes at 4° C. The pellet was suspended in homogenization buffer and used for protein and CYP assay. For intestinal microsome preparation, intestine was removed and washed with 0.9% sodium chloride. The intestine was longitudinally cut open to expose mucosal layer and mucosa was scrapped with help of glass slide. The scraped tissue was collected in homogenization buffer (50 mM Tris-HCl buffer containing glycerol (20% v/v), protease inhibitor (1%) and heparin (3 U/ml)). This suspended mucosa was homogenized and centrifuged at 10,000×g for 20 minutes at 4° C. Supernatant obtained was further centrifuged at 105,000×g for 60 minutes at 4° C. The pellet was washed with buffer and centrifuged again at 105,000×g for 60 minutes at 4° C. The pellet was suspended homogenization buffer and used for protein and CYP enzymes assays.
Ethoxyresorufin-O-deethylase (EROD) assay: The microsomal proteins (0.5 mg) were mixed with 200 μL Tris buffer (0.1 M, pH 7.4) containing ethoxyresorufin (0.01 mM). To start reaction, NADPH (0.1 mM) was added and incubated at 37° C. for 10 min. After 10 min, reaction was terminated by adding equal volume of acetonitrile and reaction mixture was centrifuged at 13000×g for 10 min at 4° C. Supernatant was used to determine resorufin by measuring fluorescence (Ex. 530 nm, Em. 580 nm). Pure resorufin (Sigma Aldrich) was used to generate standard curve.
P450-Glo Cyp1A1 luminiscence assay: The above microsomes (20 μg) were used for P450-Glo Cyp1A1 luminiscence assays as per manufacturer's instructions.

Cyp1A1 [3] = test: Cyp1A1 expression and enzyme activity in vitro (P450-Glo, EROD); type: cell-based, human; details: HT29, 24 h; P450-Glo and EROD
Procedure: Measurment of Cyp1A1 enzyme activities in vitro. EROD assay: HT-29 cells (15,000 cells/well) treated with vehicle, UroA and UAS03 (24 hrs), were rinsed with HBSS buffer, and then fresh HBSS buffer was added along with 5 μM of 7-ethoxyresorufin. Cells were further incubated at 37° C. for 1 h. After the incubation time, fluorescence (Exc. 530 nm, Em. 580 nm) was measured and product (resorufin) formed was calculated from calibration standard and normalized with protein concentration.
P450-Glo Cyp1A1 luminiscence assay: HT29 cells (25,000 cells/well) were plated in 48 well plate. Cell were then treated with UroA (0.1, 1, 10, 25 and 50 μM) or UAS03 (0.1, 1, 10, 25 and 50 μM) or FICZ (0.1, 1, 10, 25 and 50 nM) for 24 hrs. After treatment, cells were washed to remove any residual drugs, and fresh medium containing Cyp1A1 substrate (as per protocol provided with kit Cat. #V8751; Promega) for 3 hr. After incubation, 25 μl of culture medium was removed from each well and transferred to a 96-well white opaque plate and 25 μl of luciferin detection reagent was added to initiate the luminescence reaction and plate was incubated at room temperature for 20 min. After incubation, luminescence was recorded in luminometer. The data reported as fold change over vehicle treatment.

[4] = test system: mouse bone marrow derived macrophages (BMDMs); test: LPS-induced IL-6 and TNF-α in BMDM; type: cell-based; details: LPS 50 ng/mL, six hours; compared UroA
Procedure: Measurements of IL-6 and TNF-α in BMDM: BMDM were plated in 96 (10,000 cells/well) and 12 wells (0.1×10^6 cells/well) plate for ELISA and RNA isolation. To evaluate the anti-inflammatory properties, BMDMs were stimulated with E. coli-derived lipopolysaccharides (LPS; 055:B5; Sigma) at 50 ng/mL concentration for six hours alone or in combination with UroA or UAS03 at indicated concentrations (0.01, 0.1, 1, 10, 25, 50 μM) in quadruplicates. For cytokine production via ELISA, the supernatant was collected and centrifuged at 10,000×g for 10 min at 4° C. to pellet down any cell and cytokines were quantified using IL-6 and TNF-α specific ELISA kit (Biolegend) following manufacturer's instruction.
Screening for anti-inflammatory activities: Mouse bone marrow derived macrophages (BMDM) were plated in 96 wells plate for ELISA. To evaluate the anti-inflammatory properties, BMDMs were stimulated with E. coli-derived lipopolysaccharides (LPS; 055:B5; Sigma) at 50 ng/mL concentration for six hours alone or in combination with compounds at indicated concentrations in quadruplicates. For cytokine production via ELISA, the supernatant was collected and centrifuged at 12,000 rpm for 10 min at 4° C. to pellet down any cell and cytokines were quantified using IL-6 and TNF-α specific ELISA kit (Biolegend) following manufacturer's instruction. LPS induced IL-6 or TNF-α considered as 100%.

AhR = AhR reporter (XRE-luciferase) assay; type: cell-based, human; details: 6 h, over vehicle
Procedure: AhR Reporter assay: AhR-reported assay was performed using AhR Reporter Assay system (Indio Biosciences). The AhR Reporter cells (expressing luciferase under AhR promoter) as well as positive control MeBio (AhR ligand) compound were provided in the kit. The cells were treated with Vehicle or UroA or UAS03 or ellagic acid or MeBio for 6 hr and luminoscence was measured according to manufacture's instructions.

[5] = SW480, read-out: cell viability
[6] = i.p., UroA/UAS03 5 mg/kg/day, FICZ 1 μg/mouse/day

O=c1[nH]cc(F)c(=O)[nH]1 [5FU, 5-Fluoro-1H,3H-pyrimidine-2,4-dione, reference compound]
viability at 3.12 µM [1, 5]: 90%
viability at 25 µM [1, 5]: 63%
inhibition at 100 µM ([1]; SW480, read-out: maximum inhibition of cancer cell growth): ≤ 60%

O=c1cc(-c2ccccc2)oc2ccc3ccccc3c12 [BNF, beta-naphthoflavone, reference compound]
Cyp1A1 activity in liver compared to oral UroA/UAS03 (Cyp1A1 [2]): more Cyp1A1 activity in liver

O=Cc1c2c(cc3c1=Nc1ccccc1-3)=Nc1ccccc1-2 [FICZ, 6-Formylindolo[3,2-b]carbazole, reference compound]
Cyp1A1 activity in liver compared to oral UroA/UAS03 (Cyp1A1 [2]): more Cyp1A1 activity in liver
Cyp1A1 activity increase in colons (Cyp1A1 [2]; [6]): ~5 fold
Cyp1A1 enzyme activity induction in liver (Cyp1A1 [2]; [6]): ~30 fold
Cyp1A1 enzyme activity in colon epithelial cells (Cyp1A1 [3]): increased Cyp1A1 activity even at nano molar concentrations

O=C1C(=O)c2cc(O)ccc2-c2ccc(O)cc21 [PKL4]
anti-inflammatory activities (LPS-induced IL-6 and TNF-α), analogue screening [4]: effective anti-inflammatory compounds

COc1ccc2c(c1)C(=O)C(=O)c1cc(OC)ccc1-2 [PKL 3]
anti-inflammatory activities (LPS-induced IL-6 and TNF-α), analogue screening [4]: effective anti-inflammatory compounds

O=C1/C(=N/C23CC4CC(CC(C4)C2)C3)c2cc(O)ccc2-c2ccc(O)cc21 [PKL 17]
anti-inflammatory activities (LPS-induced IL-6 and TNF-α), analogue screening [4]: effective anti-inflammatory compounds

Clc1cc2c(cc1Cl)Oc1cc(Cl)c(Cl)cc1O2 [TCDD, 2,3,7,8-tetrachlorodibenzo-p-dioxin, reference compound]
Cyp1A1 enzyme activity in colon epithelial cells (Cyp1A1 [3]): increased Cyp1A1 activity even at nano molar concentrations

MeBio
induction of luciferase activity (AhR activation) (AhR): ~15 fold
